{
  "source": "ChEMBL document CHEMBL1201862",
  "about": "“PubChem BioAssay data set” (2004)",
  "assay_in_all_cases": "NCI-60 cell line screen, 48 h",
  "key": {"OVCAR-4": {"tested_on": "OVCAR-4"}, "NCI-H460": {"tested_on": "NCI-H460"}, "MDA-N": {"tested_on": "MDA-N"}, "NCI/ADR-RES": {"tested_on": "NCI/ADR-RES"}, "HCC 2998": {"tested_on": "HCC 2998"}, "SR": {"tested_on": "SR"}, "SW-620": {"tested_on": "SW-620"}, "NCI-H522": {"tested_on": "NCI-H522"}, "RXF 393": {"tested_on": "RXF 393"}, "A549": {"tested_on": "A549"}, "UACC-257": {"tested_on": "UACC-257"}, "SK-OV-3": {"tested_on": "SK-OV-3"}, "SK-MEL-28": {"tested_on": "SK-MEL-28"}, "U-251": {"tested_on": "U-251"}, "TK-10": {"tested_on": "TK-10"}, "OVCAR-5": {"tested_on": "OVCAR-5"}, "CCRF-CEM": {"tested_on": "CCRF-CEM"}, "SK-MEL-5": {"tested_on": "SK-MEL-5"}, "PC-3": {"tested_on": "PC-3"}, "Hs-578T": {"tested_on": "Hs-578T"}, "SK-MEL-2": {"tested_on": "SK-MEL-2"}, "UO-31": {"tested_on": "UO-31"}, "BT-549": {"tested_on": "BT-549"}, "MDA-MB-435": {"tested_on": "MDA-MB-435"}, "SNB-19": {"tested_on": "SNB-19"}, "DU-145": {"tested_on": "DU-145"}, "NCI-H226": {"tested_on": "NCI-H226"}, "COLO 205": {"tested_on": "COLO 205"}, "HCT-15": {"tested_on": "HCT-15"}, "KM12": {"tested_on": "KM12"}, "IGROV-1": {"tested_on": "IGROV-1"}, "HL-60": {"tested_on": "HL-60"}, "SF-268": {"tested_on": "SF-268"}, "SN12C": {"tested_on": "SN12C"}, "M14": {"tested_on": "M14"}, "Malme-3M": {"tested_on": "Malme-3M"}, "K562": {"tested_on": "K562"}, "A498": {"tested_on": "A498"}, "CAKI-1": {"tested_on": "CAKI-1"}, "SNB-75": {"tested_on": "SNB-75"}, "NCI-H23": {"tested_on": "NCI-H23"}, "HT-29": {"tested_on": "HT-29"}, "HCT-116": {"tested_on": "HCT-116"}, "EKVX": {"tested_on": "EKVX"}, "MCF7": {"tested_on": "MCF7"}, "MDA-MB-231": {"tested_on": "MDA-MB-231"}, "LOX IMVI": {"tested_on": "LOX IMVI"}, "OVCAR-8": {"tested_on": "OVCAR-8"}, "786-0": {"tested_on": "786-0"}, "HOP-62": {"tested_on": "HOP-62"}, "ACHN": {"tested_on": "ACHN"}, "T47D": {"tested_on": "T47D"}, "SF-295": {"tested_on": "SF-295"}, "UACC-62": {"tested_on": "UACC-62"}, "RPMI-8226": {"tested_on": "RPMI-8226"}, "OVCAR-3": {"tested_on": "OVCAR-3"}, "HOP-92": {"tested_on": "HOP-92"}},
  "note": "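96-well plates; 48 h exposure; 5 concentrations. Endpoints by linear interpolation between flanking doses. Not reached: highest tested concentration assigned. GI50 = concentration required for 50% inhibition of growth.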 Calls of active or inactive are those of the source. Rule as the data show it: active = GI50 up to about 1.1 µM and inactive = higher.",
  "data": [
    {"smiles": "COc1ccc(N2CCN(Cc3c(C(C)=O)[n+]([O-])c4ccccc4[n+]3[O-])CC2)cc1", "values": [
      {"measurement": "GI50", "setting": "OVCAR-4", "value": "38.3 µM (inactive)"},
      {"measurement": "GI50", "setting": "NCI-H460", "value": "87.5 µM (inactive)"},
      {"measurement": "GI50", "setting": "MDA-N", "value": "36.4 µM (inactive)"},
      {"measurement": "GI50", "setting": "NCI/ADR-RES", "value": "24.5 µM (inactive)"},
      {"measurement": "GI50", "setting": "HCC 2998", "value": "> 100 µM (inactive)"},
      {"measurement": "GI50", "setting": "SR", "value": "37.8 µM (inactive)"},
      {"measurement": "GI50", "setting": "SW-620", "value": "42.2 µM (inactive)"},
      {"measurement": "GI50", "setting": "NCI-H522", "value": "36.1 µM (inactive)"},
      {"measurement": "GI50", "setting": "RXF 393", "value": "17 µM (inactive)"},
      {"measurement": "GI50", "setting": "A549", "value": "40.3 µM (inactive)"},
      {"measurement": "GI50", "setting": "UACC-257", "value": "29.8 µM (inactive)"},
      {"measurement": "GI50", "setting": "SK-OV-3", "value": "32.3 µM (inactive)"},
      {"measurement": "GI50", "setting": "SK-MEL-28", "value": "43.3 µM (inactive)"},
      {"measurement": "GI50", "setting": "U-251", "value": "45 µM (inactive)"},
      {"measurement": "GI50", "setting": "TK-10", "value": "9.29 µM (inactive)"},
      {"measurement": "GI50", "setting": "OVCAR-5", "value": "68.2 µM (inactive)"},
      {"measurement": "GI50", "setting": "CCRF-CEM", "value": "61.1 µM (inactive)"},
      {"measurement": "GI50", "setting": "SK-MEL-5", "value": "37.1 µM (inactive)"},
      {"measurement": "GI50", "setting": "PC-3", "value": "87.5 µM (inactive)"},
      {"measurement": "GI50", "setting": "Hs-578T", "value": "25.2 µM (inactive)"},
      {"measurement": "GI50", "setting": "SK-MEL-2", "value": "54.2 µM (inactive)"},
      {"measurement": "GI50", "setting": "UO-31", "value": "64.6 µM (inactive)"},
      {"measurement": "GI50", "setting": "BT-549", "value": "17 µM (inactive)"},
      {"measurement": "GI50", "setting": "MDA-MB-435", "value": "32.6 µM (inactive)"},
      {"measurement": "GI50", "setting": "SNB-19", "value": "35.3 µM (inactive)"},
      {"measurement": "GI50", "setting": "DU-145", "value": "> 100 µM (inactive)"},
      {"measurement": "GI50", "setting": "NCI-H226", "value": "29 µM (inactive)"},
      {"measurement": "GI50", "setting": "COLO 205", "value": "60.8 µM (inactive)"},
      {"measurement": "GI50", "setting": "HCT-15", "value": 47.1, "unit": "µM"},
      {"measurement": "GI50", "setting": "KM12", "value": "48.1 µM (inactive)"},
      {"measurement": "GI50", "setting": "IGROV-1", "value": "32.4 µM (inactive)"},
      {"measurement": "GI50", "setting": "HL-60", "value": "> 100 µM (inactive)"},
      {"measurement": "GI50", "setting": "SF-268", "value": "21.1 µM (inactive)"},
      {"measurement": "GI50", "setting": "SN12C", "value": "41.2 µM (inactive)"},
      {"measurement": "GI50", "setting": "M14", "value": "45.5 µM (inactive)"},
      {"measurement": "GI50", "setting": "Malme-3M", "value": "12 µM (inactive)"},
      {"measurement": "GI50", "setting": "K562", "value": "> 100 µM (inactive)"},
      {"measurement": "GI50", "setting": "A498", "value": "44.7 µM (inactive)"},
      {"measurement": "GI50", "setting": "CAKI-1", "value": "> 100 µM (inactive)"},
      {"measurement": "GI50", "setting": "SNB-75", "value": "15.6 µM (inactive)"},
      {"measurement": "GI50", "setting": "NCI-H23", "value": "10.6 µM (inactive)"},
      {"measurement": "GI50", "setting": "HT-29", "value": "45.6 µM (inactive)"},
      {"measurement": "GI50", "setting": "HCT-116", "value": "49.5 µM (inactive)"},
      {"measurement": "GI50", "setting": "EKVX", "value": "75.3 µM (inactive)"},
      {"measurement": "GI50", "setting": "MCF7", "value": "24.2 µM (inactive)"},
      {"measurement": "GI50", "setting": "MDA-MB-231", "value": "31.2 µM (inactive)"},
      {"measurement": "GI50", "setting": "LOX IMVI", "value": "56.4 µM (inactive)"},
      {"measurement": "GI50", "setting": "OVCAR-8", "value": "28.7 µM (inactive)"},
      {"measurement": "GI50", "setting": "786-0", "value": "53.5 µM (inactive)"},
      {"measurement": "GI50", "setting": "HOP-62", "value": "16.4 µM (inactive)"},
      {"measurement": "GI50", "setting": "ACHN", "value": "22 µM (inactive)"},
      {"measurement": "GI50", "setting": "T47D", "value": "57.3 µM (inactive)"},
      {"measurement": "GI50", "setting": "SF-295", "value": "51.8 µM (inactive)"},
      {"measurement": "GI50", "setting": "UACC-62", "value": "71.6 µM (inactive)"},
      {"measurement": "GI50", "setting": "RPMI-8226", "value": "> 100 µM (inactive)"},
      {"measurement": "GI50", "setting": "OVCAR-3", "value": "> 100 µM (inactive)"},
      {"measurement": "GI50", "setting": "HOP-92", "value": "32.5 µM (inactive)"}
    ]}
  ]
}
